Laboratory results from paper PMC9781010, “Polyphenolic Compounds Isolated from Marine Algae Attenuate the Replication of SARS-CoV-2 in the Host Cell through a Multi-Target Approach of 3CL^pro and PL^pro” (Marine Drugs, 2022).
Where two headings read alike, the source gives them in different places.

Key:
SARS-CoV-2 = test: Cytopathic effect (CPE) reduction assay; type: cell-based; conditions: for CPE reduction / inhibitory activity against SARS-CoV-2 (in words): no concentration stated
Experimental: The CPE reduction assay was performed according to the previously reported method. Briefly, the cells were seeded with 5 × 10^4 cells/well in a 96-well plate and incubated at 37 °C for 48 h. A total of 100 µL of the virus was treated in each well using DMEM media that was FBS free and 1% antibiotic to infect a 0.01 multiplicity of infection (MOI) and incubated for an additional 1 h at 37 °C. Subsequently, the infected cells were treated with samples after removing the virus and 72 h of incubation was performed, and the MTT solution was added and allowed to stand for a 4 h incubation period. The formazan crystals were dissolved and the absorbance was measured.

3CL^pro [1] = target: 3CL^pro (UniProt P0DTD1); test: Cell-based 3CLpro cleavage inhibition assay (dual luciferase, Vero-E6 cells); design: species or system SARS-CoV-2
PL^pro [2] = target: PL^pro (UniProt P0DTD1); test: Cell-based PLpro cleavage inhibition assay (dual luciferase, Vero-E6 cells); design: species or system SARS-CoV-2
3CL^pro (SARS-CoV-2) = 3CL^pro (SARS-CoV-2) (Severe acute respiratory syndrome coronavirus 2, UniProt P0DTD1); test: biochemical; type: biochemical; conditions: for Mode of inhibition (Lineweaver–Burk plot): 3CL^pro, Vmax unchanged, Km increased with inhibitor concentration
PL^pro (SARS-CoV-2) = PL^pro (SARS-CoV-2) (Severe acute respiratory syndrome coronavirus 2, UniProt P0DTD1); test: biochemical; type: biochemical; conditions: for Mode of inhibition (Lineweaver–Burk plot): PL^pro, Vmax unchanged, Km increased with inhibitor concentration
3CL^pro [3] = target: 3CL^pro (UniProt P08659+P0DTD1); test: Cell-based 3CLpro cleavage inhibition assay (dual luciferase, Vero-E6 cells); design: species or system SARS-CoV-2; conditions: cell-based
PL^pro [4] = target: PL^pro (UniProt P08659+P0DTD1); test: Cell-based PLpro cleavage inhibition assay (dual luciferase, Vero-E6 cells); design: species or system SARS-CoV-2; conditions: cell-based
[5] = at 6.25 µM, compared to Dieckol
[6] = cell-free cleavage of 3CL^pro, fluorogenic substrate, read-out: IC50 Value
[7] = cell-free cleavage of PL^pro, fluorogenic substrate, read-out: IC50 Value

Chain of 3CL^pro (UniProt P0DTD1) (P08659 whole entry, looked up, other chains not shown): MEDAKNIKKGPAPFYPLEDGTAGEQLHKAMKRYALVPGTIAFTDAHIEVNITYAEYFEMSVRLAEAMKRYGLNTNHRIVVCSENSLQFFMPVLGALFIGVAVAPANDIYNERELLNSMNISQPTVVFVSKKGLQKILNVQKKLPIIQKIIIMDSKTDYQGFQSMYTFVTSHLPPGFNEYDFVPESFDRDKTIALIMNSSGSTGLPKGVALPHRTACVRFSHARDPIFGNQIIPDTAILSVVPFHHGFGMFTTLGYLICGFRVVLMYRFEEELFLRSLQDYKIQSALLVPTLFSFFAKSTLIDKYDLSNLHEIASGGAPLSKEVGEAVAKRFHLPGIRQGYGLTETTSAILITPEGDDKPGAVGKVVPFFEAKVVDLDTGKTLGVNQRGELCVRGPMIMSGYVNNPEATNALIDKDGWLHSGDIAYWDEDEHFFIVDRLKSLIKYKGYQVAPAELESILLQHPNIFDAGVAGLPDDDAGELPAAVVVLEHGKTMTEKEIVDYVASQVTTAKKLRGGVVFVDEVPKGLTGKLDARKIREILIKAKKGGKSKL
Chain of PL^pro (UniProt P0DTD1) (P08659 whole entry, looked up, other chains not shown): as above
Chain of 3CL^pro (UniProt P08659+P0DTD1) (P08659 whole entry, looked up, other chains not shown): as above
Chain of PL^pro (UniProt P08659+P0DTD1) (P08659 whole entry, looked up, other chains not shown): as above

SMILES	CPE reduction / inhibitory activity against SARS-CoV-2 (in words) (SARS-CoV-2)	Cell-based inhibitory activity against proteolytic activity (in words) (3CL^pro [1])	Cell-based inhibitory activity against proteolytic activity (in words) (PL^pro [2])	IC50 (3CL^pro (SARS-CoV-2)) [µM]	Mode of inhibition (Lineweaver–Burk plot) (3CL^pro (SARS-CoV-2))	IC50 (PL^pro (SARS-CoV-2)) [µM]	Mode of inhibition (Lineweaver–Burk plot) (PL^pro (SARS-CoV-2))	CPE reduction activity (SARS-CoV-2; [5])	CPE reduction activity (SARS-CoV-2; at 25 µM)	IC50 (3CL^pro (SARS-CoV-2); [6]) [µM]	IC50 (PL^pro (SARS-CoV-2); [7]) [µM]	Concentrations with significant and dose-dependent inhibitory activity (3CL^pro [3]) [µM]	Concentrations with significant and dose-dependent inhibitory activity (PL^pro [4]) [µM]
Oc1cc(O)cc(Oc2c(O)cc(O)c3c2Oc2c(O)cc(Oc4c(O)cc(Oc5c(O)cc(O)c6c5Oc5c(O)cc(O)cc5O6)cc4O)cc2O3)c1 [Dieckol]	dose-dependent inhibitory activity	significant and dose-dependent inhibitory activities	significant and dose-dependent inhibitory activities	5.49 ± 0.092	competitive inhibitors	19.74 ± 0.09	competitive inhibitors						
Oc1cc(O)cc(Oc2c(O)cc3c(c2O)Oc2cc(Oc4c(O)cc(O)cc4O)c(O)c(O)c2O3)c1 [Diphlorethohydroxycarmalol]	greater activities than IPA	significant and dose-dependent inhibitory activities	significant and dose-dependent inhibitory activities		competitive inhibitors		competitive inhibitors	great CPE reduction activity	greatest CPE reduction activity	3.12 ± 0.066	6.637 ± 0.056		
Oc1cc(O)c(Oc2cc(O)cc(O)c2-c2c(O)cc(O)cc2Oc2c(O)cc(O)cc2Oc2c(O)cc(O)c3c2Oc2c(O)cc(O)cc2O3)c(O)c1 [Eckmaxol]	greater activities than IPA	significant and dose-dependent inhibitory activities	significant and dose-dependent inhibitory activities		competitive inhibitors		competitive inhibitors	great CPE reduction activity		1.89 ± 0.078	19.83 ± 0.121		
Oc1cc(O)cc(Oc2cc(O)c(Oc3c(O)cc(O)cc3Oc3cc(O)c(Oc4cc(O)cc(O)c4Oc4cc(O)cc(O)c4Oc4cc(O)cc(O)c4Oc4cc(O)c(Oc5c(O)cc(O)cc5Oc5c(O)cc(Oc6c(O)cc(Oc7c(O)cc(Oc8c(O)cc(Oc9c(O)cc(Oc%10c(O)cc(Oc%11c(O)cc(O)cc%11O)cc%10O)cc9O)cc8O)cc7O)cc6O)cc5O)c(O)c4)c(O)c3)c(O)c2)c1 [Ishophloroglucin A]		greatest inhibitory activity	greatest inhibitory activity		competitive inhibitors		competitive inhibitors	great CPE reduction activity		0.481 ± 0.031	1.405 ± 0.007	6.29 to 75.52	12.59 to 75.52
